From US10488417B2, “Compounds for use as imaging agents” (United Arab Emirates University, priority 2014, dated 2019)

Columns and labels:
[1] = biological target: T1, α-synuclein fibrils (Homo sapiens, UniProt P37840); experiment: Congo red binding assay of aged α-synuclein; format: biochemical; settings: all tested concentrations; fibril control shifts from 490 to 508 nm
T1 construct: GST (N, cleaved yes); made in house; host or cells: E. coli BL21
Experimental: CR is a dye with high affinity for amyloid fibrils. Congo red (20 μM) was prepared in PBS (pH 7.4) and filtered through a 0.45 μm filter. Samples of α-synuclein (5 μM), aged alone or with the compounds at different molar ratios, were mixed with Congo red (final concentration 5 μM), and the reaction samples were thoroughly mixed. The UV absorbance spectrum was recorded between 400 and 600 nm in a spectrophotometer (DU-800, Beckman-Coulter) using 10-mm quartz cuvettes (HellmaAnalytics-Germany). Congo red alone was used as blank.

[2] = system: BE(2)-M17 human neuroblastoma cells; experiment: α-synuclein-induced cytotoxicity, MTT cell viability; format: cell-based
Experimental: BE(2)-M17 human neuroblastoma cells were routinely cultured in Dulbecco's MEM/Nutrient Mix F-12 (1:1) (Gibco BRL, Rockville, Md.) containing 15% fetal bovine serum and 1% penicillin-streptomycin (P/S; 100 U/ml penicillin, […]). The cells were maintained at 37° C. in a humidified incubator with 5% CO2/95% air.
BE(2)-M17 cells suspended in DMEM medium were plated at a density of 15,000 cells (100 μL/well) in a 96-well plate. After 24 hours, the medium was replaced with 200 μL of OPTI-MEM (Gibco-USA) serum-free medium containing aged α-synuclein solutions with or without the compounds. Aged α-synuclein and compound-containing solutions were diluted in OPTI-MEM to obtain the desired concentration. Cells were then incubated at 37° C. in 5% CO2 for 48 hours. A total of 20 μL of MTT (3-(4,5-dimethylthiazol-2-yl)-2,5-diphenyltetrazolium bromide) (Sigma-Aldrich, USA) (6 mg/ml) in PBS was dispensed into each well, and the plate was incubated at 37° C. for 4.5 hours. The MTT-containing medium was carefully removed, and 100 μL of lysis buffer (15% SDS, 50% N,N-dimethylformamide, pH 4.7) was added to each well. The lysis buffer was incubated overnight at 37° C. before the absorbance values at 590 nm were determined by a microplate reader (Perkin Elmer).
BE(2)-M17 human neuroblastoma cells were treated with aged α-synuclein solutions at three different concentrations, 0.5 μM, 1 μM and 5 μM, either alone or in the presence of Gn Rb1, salvianolic acid B or dihydromyricetin.
The viability of cells treated with α-synuclein aged in the presence or absence of the Gn Rb1, salvianolic acid B or dihydromyricetin was determined by the MTT assay. Prior to the experiments, the effect of the Gn Rb1, salvianolic acid B and dihydromyricetin alone on cell viability was assessed (data not shown), employing the same non-toxic Gn Rb1, salvianolic acid B and dihydromyricetin concentrations that were later employed for the experiments with aged α-synuclein.

[3] = biological target: T2, preformed α-synuclein fibrils (Homo sapiens, UniProt P37840); experiment: α-synuclein disaggregation assay on preformed fibrils (Th-T); format: biochemical; settings: 25 μM preformed fibrils; for effect on preformed α-synuclein fibrils (Th-T counts): ratios 6:1, 4:1, 2:1, 48 hours, 37° C.
T2 construct: GST (N, cleaved yes); made in house; host or cells: E. coli BL21
Experimental: α-Synuclein solution in PBS (pH 7.4) was aggregated at a concentration of 25 μM as indicated above. The resulting aggregated α-synuclein was incubated either alone or with Gn Rb1 or dihydromyricetin at various molar ratios (compound: α-synuclein molar ratios of 6:1, 4:1 and 2:1). It should be noted that for the purpose of the experiment, the concentration of α-synuclein taken into account was the concentration of fresh α-synuclein. The samples were incubated at 37° C. for 48 hours on a thermomixer with continuous shaking at 800 rpm. Samples were collected at regular time points, and Th-T fluorescence was measured immediately.
Due to their high efficiency to inhibit α-synuclein fibrillation, Gn Rb1 and dihydromyricetin were assessed for their effectiveness on reversing fibrillation. 25 μM of preformed α-synuclein fibrils were incubated at 37° C. in the presence of Gn Rb1 or dihydromyricetin at varying molar ratios (compound: α-synuclein of 6:1, 4:1 and 2:1) for a period of 48 hours. By measuring the Th-T fluorescence counts (FIGS. 7A-7B), the fibril content was estimated at different time points.

[4] = biological target: T3, α-synuclein oligomers (Homo sapiens, UniProt P37840); experiment: Binding to α-synuclein oligomers: SEC fractions P1-P3 with UV scanning; settings: compound: α-synuclein 4:1, 100 μM α-synuclein, 5 days
T3 construct: GST (N, cleaved yes); made in house; host or cells: E. coli BL21
Experimental: SEC was carried out using an AKTA FPLC system (GE Healthcare-Sweden) and a superdex 200 column at 4° C., in order to separate the oligomers generated from the aggregation of α-synuclein with the compounds (compound: α-synuclein molar ratio of 4:1). Monomeric α-synuclein at a concentration of 100 μM was aggregated in the presence of the compounds for 5 days as described above. At the end of the aggregation process, the sample was centrifuged for 45 min at 14,000×g at 4° C. generating a supernatant free from insoluble material. Prior to injecting 80% of the generated supernatant, the column was thoroughly equilibrated with SEC running buffer (1×PBS, pH 7.4) and the flow rate was set to 0.1 ml/min (0.5 ml/fraction). The elution of α-synuclein was monitored at absorbance wavelengths of 215 nm, 254 nm, and 280 nm. To determine the elution time of monomeric α-syn, molecular weight standards (ferritin 440 kDa, aldolase 171 kDa, abmumin 68 kDa and chymotrypsinogenA 25 kDa) and monomeric α-synuclein were co-injected into the column and eluted at the same conditions mentioned above.
For the experiments with salvianolic acid B and dihydromyricetin the fractions eluting between 7-8 ml CV were combined and labeled as oligomers (sample P1), and fractions eluting between 12-14 ml CV were combined and labeled as oligomers (sample P2), whereas the fractions eluting in the 14-16 ml CV were combined and labeled as monomers (sample P3). […]
The P1, P2 and P3 samples, representing the oligomeric and monomeric fractions of SEC, were concentrated using a speed vac (CentriVap, Labconco). […] The UV absorbance spectrum was recorded from 200-600 nm in a spectrophotometer (DU-800, Beckman-Coulter) using 10 mm quartz cuvettes (Hellma Analytics-Germany) and employing equal concentrations of the P1, P2 and P3. […]

[5] = 5 μM aged α-synuclein, all concentrations of compound, 48 hours, MTT

Row | SEC samples in which compound was detected by UV absorbance (P1, P2 oligomers; P3 monomers) [4] | SMILES | absorption maximum of Congo red bound to α-synuclein samples [1] | improvement of viability of the cells ([2]; 1 μM aged α-synuclein, all used concentrations of compound, MTT) | cells surviving [2, 5] | increase in viability of the cells [2, 5] | effect on preformed α-synuclein fibrils (Th-T counts) [3] | Th-T counts as fraction of the Th-T counts of the control ([3]; after 4 hours of incubation, ratios 6:1, 4:1, 2:1) | improvement of cell viability ([2]; highest concentration, molar ratio of 4:1, MTT) | cells survived ([2]; α-synuclein aged with compound at molar ratios of 4:1 and 2:1, MTT)
1 | detected in both P2 and P3 | O=C1c2c(O)cc(O)cc2O[C@H](c2cc(O)c(O)c(O)c2)[C@H]1O [dihydromyricetin] |  |  |  |  | disaggregated preformed α-synuclein fibrils in a dose-dependent fashion |  | approximately 10% | 
2 | detected in the P2 sample | O=C(/C=C/c1ccc(O)c2c1[C@H](C(=O)O[C@H](Cc1ccc(O)c(O)c1)C(=O)O)[C@@H](c1ccc(O)c(O)c1)O2)O[C@H](Cc1ccc(O)c(O)c1)C(=O)O [salvianolic acid B] |  |  |  |  |  |  |  | approximately 95%

Row | SMILES | SEC samples in which compound was detected by UV absorbance (P1, P2 oligomers; P3 monomers) [4] | absorption maximum of Congo red bound to α-synuclein samples [1] | improvement of viability of the cells ([2]; 1 μM aged α-synuclein, all used concentrations of compound, MTT) | cells surviving [2, 5] | increase in viability of the cells [2, 5] | effect on preformed α-synuclein fibrils (Th-T counts) [3] | Th-T counts as fraction of the Th-T counts of the control ([3]; after 4 hours of incubation, ratios 6:1, 4:1, 2:1) | improvement of cell viability ([2]; highest concentration, molar ratio of 4:1, MTT) | cells survived ([2]; α-synuclein aged with compound at molar ratios of 4:1 and 2:1, MTT)
3 | CC(C)=CCC[C@](C)(O[C@@H]1O[C@H](CO[C@@H]2O[C@H](CO)[C@@H](O)[C@H](O)[C@H]2O)[C@@H](O)[C@H](O)[C@H]1O)[C@H]1CC[C@]2(C)[C@@H]1[C@H](O)C[C@@H]1[C@@]3(C)CC[C@H](O[C@@H]4O[C@H](CO)[C@@H](O)[C@H](O)[C@H]4O[C@@H]4O[C@H](CO)[C@@H](O)[C@H](O)[C@H]4O)C(C)(C)[C@@H]3CC[C@]12C [Gn Rb1, ginsenoside Rb1] | detected only in the oligomeric P2 samples | ≤ 495 nm | approximately 30% | approximately 80% | approximately 30% | disaggregated in a dose-dependent fashion | ⅕ |  | 
